Reference: patent USRE48335E1, “Polymyxin derivatives as antimicrobial compounds” (priority 2014, dated 2020)
Converted amounts (≈) assume the structure as drawn. Positions of bridges follow the written chain, without caps; N, C: chain ends. Non-standard residues stand in square brackets, D forms with d. Residues, ends and D or L forms follow the SMILES beside them. *: point of attachment. Benzoyl(4-CF3) = O=C(c1ccc(C(F)(F)F)cc1)*; X7 = O=C(c1cc(F)cc(C(F)(F)F)c1)*; X8 = O=C(c1ccc(C(F)(F)F)cc1Cl)*; X6 = O=C(c1ccc(F)c(Cl)c1)*; Nonanoyl = CCCCCCCCC(=O)*; X5 = Cc1cc(C(=O)*)ccc1Cl; Dab = NCC[C@H](N)C(=O)O; Abu = CC[C@H](N)C(=O)O; Dap = NC[C@H](N)C(=O)O

How the values were obtained:
[1] = tested on: Pseudomonas aeruginosa
In short: (§1)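 Broth microdilution, CAMHB, per CLSI M100-S18; compounds as TFA salts; polymyxin B (sulphate) control; read-out MIC.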

[2] = tested on: Klebsiella pneumoniae
In short: as §1

[3] = tested on: Enterobacter cloacae
In short: as §1

[4] = tested on: Acinetobacter baumannii
In short: as §1

[5] = tested on: P. aeruginosa ATCC 27853; assay: In vivo efficacy in mouse blood infection model (neutropenic Swiss mice); details: compound, free base 4 mg/kg intravenously 2 h after inoculation, blood at 4 h
In short: (§2)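 Activity expressed as Δlog10 CFU/mL blood, treated minus saline control, 4 h after a single 4 mg/kg (free base) i.v. dose given 2 h post-infection. Bloodstream infection from i.v. early log-phase inoculum in Swiss mice made neutropenic by i.p. cyclophosphamide on days −4 (150 mg/kg) and −1 (100 mg/kg).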

[6] = tested on: A. baumannii ATCC 19606; assay: as above; details: compound, free base 4 mg/kg intravenously 2 h after inoculation, blood at 4 h
In short: as §2

[7] = tested on: K. pneumoniae FADDI-KP032; assay: as above; details: compound, free base 4 mg/kg intravenously 2 h after inoculation, blood at 4 h
In short: as §2

Row | SMILES | MIC [1] | Minimum inhibitory concentration, Pa ATCC 27853 [1] | Minimum inhibitory concentration, Pa FADDI-PA022 [1] | Minimum inhibitory concentration, Pa FADDI-PA025 [1] | MIC [2] | Minimum inhibitory concentration, Ec FADDI-EC001 [3] | Minimum inhibitory concentration, Ec FADDI-EC003 [3] | Minimum inhibitory concentration, Ec FADDI-EC006 [3] | MIC [4] | Minimum inhibitory concentration, Ab A ATCC 17978 [4] | Minimum inhibitory concentration, Ab ATCC 19606 [4] | Minimum inhibitory concentration, Ab FADDI-AB034 [4] | Δ log (Treated-Control at 4 h) [5] | Δ log (Treated-Control at 4 h) [6] | Δ log (Treated-Control at 4 h) [7]
1 | CCCCCCCCC(=O)N[C@@H](CCN)C(=O)N[C@H](C(=O)N[C@@H](CN)C(=O)N[C@H]1CCNC(=O)[C@H]([C@@H](C)O)NC(=O)[C@H](CCN)NC(=O)[C@H](CCN)NC(=O)[C@H]([C@@H](C)O)NC(=O)[C@@H](CC(C)C)NC(=O)[C@H](CCN)NC1=O)[C@@H](C)O [Compound 58] (Nonanoyl-[Dab]T[Dap][Dab][Dab][dL]T[Dab][Dab]T; lactam 4-C) | 0.5 µg/mL (≈ 0.437 µM) | 0.5 µg/mL (≈ 0.437 µM) | 2 µg/mL (≈ 1.75 µM) | 2 µg/mL (≈ 1.75 µM) | 0.25 µg/mL (≈ 0.219 µM) | 0.25 µg/mL (≈ 0.219 µM) | 0.25 µg/mL (≈ 0.219 µM) | 0.5 µg/mL (≈ 0.437 µM) | 0.25 µg/mL (≈ 0.219 µM) | 0.5 µg/mL (≈ 0.437 µM) | 0.25 µg/mL (≈ 0.219 µM) | 1 µg/mL (≈ 0.875 µM) | −3.00 log10 CFU/mL | −2.15 log10 CFU/mL | −3.21 log10 CFU/mL
2 | CC[C@@H]1NC(=O)[C@@H](CC(C)C)NC(=O)[C@H](CCN)NC(=O)[C@@H](NC(=O)[C@H](CN)NC(=O)[C@@H](NC(=O)[C@H](CCN)NC(=O)c2ccc(C(F)(F)F)cc2)[C@@H](C)O)CCNC(=O)[C@H]([C@@H](C)O)NC(=O)[C@H](CCN)NC(=O)[C@H](CCN)NC1=O [Compound 74] ({Benzoyl(4-CF3)}-[Dab]T[Dap][Dab][Dab][dL][Abu][Dab][Dab]T; lactam 4-C) | 0.5 µg/mL (≈ 0.431 µM) | 0.5 µg/mL (≈ 0.431 µM) | 0.5 µg/mL (≈ 0.431 µM) | 2 µg/mL (≈ 1.73 µM) | 0.25 µg/mL (≈ 0.216 µM) | <0.125 µg/mL | 0.25 µg/mL (≈ 0.216 µM) | 2 µg/mL (≈ 1.73 µM) | 0.5 µg/mL (≈ 0.431 µM) | 0.5 µg/mL (≈ 0.431 µM) | 0.5 µg/mL (≈ 0.431 µM) | 1 µg/mL (≈ 0.863 µM) | −3.10 log10 CFU/mL | −2.34 log10 CFU/mL | −2.94 log10 CFU/mL
3 | CC[C@@H]1NC(=O)[C@@H](CC(C)C)NC(=O)[C@H](CCN)NC(=O)[C@@H](NC(=O)[C@H](CN)NC(=O)[C@@H](NC(=O)[C@H](CCN)NC(=O)c2ccc(Cl)c(C)c2)[C@@H](C)O)CCNC(=O)[C@H]([C@@H](C)O)NC(=O)[C@H](CCN)NC(=O)[C@H](CCN)NC1=O [Compound 104] (X5-[Dab]T[Dap][Dab][Dab][dL][Abu][Dab][Dab]T; lactam 4-C) | 0.5 µg/mL (≈ 0.439 µM) | 0.5 µg/mL (≈ 0.439 µM) | 0.5 µg/mL (≈ 0.439 µM) | 2 µg/mL (≈ 1.75 µM) | 1 µg/mL (≈ 0.877 µM) | 0.5 µg/mL (≈ 0.439 µM) | 0.25 µg/mL (≈ 0.219 µM) | 0.5 µg/mL (≈ 0.439 µM) | 1 µg/mL (≈ 0.877 µM) | 0.5 µg/mL (≈ 0.439 µM) | 1 µg/mL (≈ 0.877 µM) | 0.25 µg/mL (≈ 0.219 µM) | −3.08 log10 CFU/mL | −1.35 log10 CFU/mL | −3.23 log10 CFU/mL
4 | CC[C@@H]1NC(=O)[C@@H](CC(C)C)NC(=O)[C@H](CCN)NC(=O)[C@@H](NC(=O)[C@H](CN)NC(=O)[C@@H](NC(=O)[C@H](CCN)NC(=O)c2cc(F)cc(C(F)(F)F)c2)[C@@H](C)O)CCNC(=O)[C@H]([C@@H](C)O)NC(=O)[C@H](CCN)NC(=O)[C@H](CCN)NC1=O [Compound 108] (X7-[Dab]T[Dap][Dab][Dab][dL][Abu][Dab][Dab]T; lactam 4-C) | 0.5 µg/mL (≈ 0.425 µM) | 0.5 µg/mL (≈ 0.425 µM) | 0.5 µg/mL (≈ 0.425 µM) | 2 µg/mL (≈ 1.7 µM) | 0.25 µg/mL (≈ 0.212 µM) | 1 µg/mL (≈ 0.849 µM) | 0.5 µg/mL (≈ 0.425 µM) | 0.5 µg/mL (≈ 0.425 µM) | 0.5 µg/mL (≈ 0.425 µM) | 0.5 µg/mL (≈ 0.425 µM) | 0.5 µg/mL (≈ 0.425 µM) | 0.5 µg/mL (≈ 0.425 µM) | −2.32 log10 CFU/mL | −1.82 log10 CFU/mL | −2.84 log10 CFU/mL
5 | CC[C@@H]1NC(=O)[C@@H](CC(C)C)NC(=O)[C@H](CCN)NC(=O)[C@@H](NC(=O)[C@H](CN)NC(=O)[C@@H](NC(=O)[C@H](CCN)NC(=O)c2ccc(C(F)(F)F)cc2Cl)[C@@H](C)O)CCNC(=O)[C@H]([C@@H](C)O)NC(=O)[C@H](CCN)NC(=O)[C@H](CCN)NC1=O [Compound 109] (X8-[Dab]T[Dap][Dab][Dab][dL][Abu][Dab][Dab]T; lactam 4-C) | 0.5 µg/mL (≈ 0.419 µM) | 0.5 µg/mL (≈ 0.419 µM) | 0.5 µg/mL (≈ 0.419 µM) | 2 µg/mL (≈ 1.68 µM) | 0.25 µg/mL (≈ 0.209 µM) | 1 µg/mL (≈ 0.838 µM) | <0.125 µg/mL | 0.25 µg/mL (≈ 0.209 µM) | 0.25 µg/mL (≈ 0.209 µM) | 1 µg/mL (≈ 0.838 µM) | 0.25 µg/mL (≈ 0.209 µM) | 1 µg/mL (≈ 0.838 µM) | −2.68 log10 CFU/mL | −1.54 log10 CFU/mL | −3.47 log10 CFU/mL
6 | CC[C@@H]1NC(=O)[C@@H](CC(C)C)NC(=O)[C@H](CCN)NC(=O)[C@@H](NC(=O)[C@H](CN)NC(=O)[C@@H](NC(=O)[C@H](CCN)NC(=O)c2ccc(F)c(Cl)c2)[C@@H](C)O)CCNC(=O)[C@H]([C@@H](C)O)NC(=O)[C@H](CCN)NC(=O)[C@H](CCN)NC1=O [Compound 110] (X6-[Dab]T[Dap][Dab][Dab][dL][Abu][Dab][Dab]T; lactam 4-C) | 0.5 µg/mL (≈ 0.437 µM) | 0.5 µg/mL (≈ 0.437 µM) | 0.5 µg/mL (≈ 0.437 µM) | 1 µg/mL (≈ 0.874 µM) | 0.25 µg/mL (≈ 0.219 µM) | 1 µg/mL (≈ 0.874 µM) | 1 µg/mL (≈ 0.874 µM) | 0.5 µg/mL (≈ 0.437 µM) | 2 µg/mL (≈ 1.75 µM) | 0.5 µg/mL (≈ 0.437 µM) | 2 µg/mL (≈ 1.75 µM) | 0.5 µg/mL (≈ 0.437 µM) | −3.30 log10 CFU/mL | −1.57 log10 CFU/mL | −2.50 log10 CFU/mL
